This is an account of results in patent US11021711B2, “Genetic variations associated with drug resistance” (GENENTECH, Inc., priority 2008, dated 2021).

Experiment [1] deals with HER2-positive metastatic breast cancer. The protocol:
ABCC3 FISH analysis was performed on samples obtained from the T-DM1 Phase II (TDM4258G) trial to explore the effect of ABCC3 amplification on T-DM1 activity in HER2 amplified breast tumors. The TDM4258G trial is a multi-institutional, open-label, single-arm, Phase II study of T-DM1 administered by IV infusion to patients with HER2-positive metastatic breast cancer. The patients in the trial had shown prior progression on HER2-directed therapy. Formalin Fixed Paraffin Embedded (FFPE) archival tumor tissue samples from the clinical trial was obtained from the clinical investigation sites with appropriate IRB approval and patient consent.
The FISH assay was performed on the clinical trial samples as described in Example 1. […] Those samples with ABCC3/CEP17 ratios of 1.8 and above are considered to have ABCC3 amplification.

A further experiment concerns EFM-192A cells. As to the kind of experiment: Mitotic index (phospho histone H3) after ABCC3 or control siRNA, EFM-192A. Type of experiment: cell-based, human. Particulars: for sensitivity (mitotic response) of ABCC3 siRNA transfected cells vs control siRNA (NTC) transfected cells: EFM-192A cells. Here is the method:
High content screening assays were carried out on an Arrayscan VTI (Cellomics Inc, Pittsburgh, Pa.). Cells were transfected in 96 well format using siRNA “Smartpool” oligonucleotides purchased from Dharmacon Inc and Oligofectamine transfection reagents. To prioritize genes for functional studies, 2-sided Wilcoxon rank sum tests using the R programming language (http://www.r-project.org) were done to identify genes with a significant difference in gene expression in cell lines with more than 4 copies compared to those with less than 4 copies of the 17q21.3 amplicon. This analysis combined with availability of reagents for RNAi experiments led to the selection of the following 24 genes for functional studies in the EFM-192A cell line: ABCC3, COL1A1, CROP, EAP, EPN3, FLJ13855, F1120920, HOXB7, LOC201191, ITGB3, KIAA0924, KPNB1, LOC400604, LOC81558, MGC11242, MGC15396, NDP52, PDK2, PHB, PP1R9B, SLC35B1, SPOP, TOB1, WNT3. Follow-up studies with ABCC3 siRNA were conducted in the additional cell lines ZR75-30, MDAMB-453 and HCC-1428. […] After 48 hours or 72 hours incubation at 37 C, cells were fixed in 3.7% formaldehyde and permeabilized in 0.1% Triton X-100, followed by labeling with a 1:500 dilution of anti-phospho histone H3 (pH3, Upstate) and subsequent 1:250 dilution of Alexa-fluor 488 (Molecular probes) Goat anti-rabbit secondary antibody. Cells were counterstained with Hoechst-33258 to allow identification of nuclei and the percentage of cells positive for nuclear pH3 immunofluorescence, also known as the Mitotic Index (30), was then quantitated for at least 1000 cells per well using Cellomics Target Activation software.
Phosphorylation at Ser10 of histone H3 is tightly correlated with chromosome condensation during M phase, and the percentage of cells that are positive for pH3 staining, or mitotic index, can be determined through an immunofluorescence assay.

Experiment [2] has as its system EVSA-T cells (empty vector control clone). As to the kind of experiment: ATP-based luminescence viability assay, EVSA-T vector control line. It counts as cell-based, human. Particulars: three day assay, read-out: EC50 (concentration that resulted in half-maximal response). The text has this:
(§1) The control cell line in FIG. 5 is in fact a clone of EVSA-T derived after transfection with an empty vector and in the particular experiment shown achieved an IC50.
(§2) For ABCC3 overexpression experiments a full length ABCC3 cDNA cloned in the CMV promoter containing vector pCMV5 (Invitrogen, Carlsbad, Calif.) was verified by sequencing the entire coding sequence. The construct was transfected into EVSA-T cells and stable clones were selected by growth in lmg/ml geneticin (Invitrogen Carlsbad, Calif.). Overexpression of ABCC3 in stable clones was confirmed by qRT-PCR on cDNA derived from lines containing pCMV5-ABCC3, pCMV5 vector alone, or the parental EVSA-T strain. All stable cell lines described in this report were determined in qRT-PCR experiments to express at least 25-35× more ABCC3 transcript than vector control lines or the parental cell line.
(§3) Three independently derived lines were confirmed to overexpress ABCC3 transcripts and screened for in vitro sensitivity to paclitaxel and MMAE using an ATP-based luminescence assay. […] The EC50 for the vector control treated with paclitaxel was 0.2 nM while the EC50 values for the ABCC3-expressing lines were 5 nM, 10 nM, and 80 nM, respectively.

Another experiment concerns BT474. As to the kind of experiment: Celltiter-Glo Luminescent Cell Viability Assay, BT474. It counts as cell-based, human. As to conditions: BT474, 72 hours. Here is the method: (§4) For MMAE and paclitaxel IC50 determination, cells were plated in quadruplicate at a density of 3000 cells per well in 384-well plates in normal growth medium and allowed to adhere overnight. Paclitaxel (Sigma) or MMAE (Seattle Genetics, Seattle, Wash.) were added in 10 concentrations based on a three-fold dilution series (1 μmol/L maximal paclitaxel or 0.1 μmol/L maximal for MMAE).
(§5) Cell viability was measured 72 hours later using the Celltiter-Glo Luminescent Cell Viability Assay (Promega, Madison, Wis.). The concentration of drug resulting in the 50% inhibition of cell viability (IC50) was calculated from a four-parameter curve analysis (XLfit, 1DSS software) and was determined from a minimum of three experiments. […] FIG. 6 provides examples of representative cell viability experiments for six cell lines. Cell lines EFM192A, NDAMB361, and BT474 were classified as resistant to each agent in the bioinformatic analysis. AU565, EFM19, and MDAMB468 were classified as sensitive. IC50 values from fitted curves are shown in the charts to the right of each graph.
For orientation: Cellular ATP, detected with luciferase, serves as a proxy for viable cell number.

A further experiment has as its system NDAMB361. As to the kind of experiment: Celltiter-Glo Luminescent Cell Viability Assay, NDAMB361. Type of experiment: cell-based, human. As to conditions: NDAMB361, 72 hours. The protocol: as §4, §5
For experiment [3], the system named is ABCC3-overexpressing EVSA-T cells. Put plainly: ATP-based luminescence viability assay, ABCC3-overexpressing EVSA-T clones. It counts as cell-based, human. As to conditions: for inhibition of cell growth compared to vector-alone control stable cell line: all three overexpressing cell lines, ATP-based luminescence assay (FIG. 5); for EC50: three day assay, read-out: EC50 (concentration that resulted in half-maximal response).
Excerpt: as §1, §2, §3
EVSA-T cells were stably transfected with an ABCC3 containing plasmid where ABCC3 is expressed at high levels from a cytomegalovirus (CMV) promoter. Overexpression of ABCC3 was confirmed by qRT-PCR.

For a further experiment, the system named is EFM192A. As to the kind of experiment: Celltiter-Glo Luminescent Cell Viability Assay, EFM192A. It counts as cell-based, human. Particulars: 72 hours. The protocol:
as §4, §5

The test system of a further experiment is ZR75-30. Put plainly: Mitotic index (phospho histone H3) after ABCC3 or control siRNA, ZR75-30. Type of experiment: cell-based, human. Particulars: ZR75-30 (ABCC3 amplified), drug-treated cells. Here is the method: (§6) High content screening assays were carried out on an Arrayscan VTI (Cellomics Inc, Pittsburgh, Pa.). Cells were transfected in 96 well format using siRNA “Smartpool” oligonucleotides purchased from Dharmacon Inc and Oligofectamine transfection reagents. To prioritize genes for functional studies, 2-sided Wilcoxon rank sum tests using the R programming language (http://www.r-project.org) were done to identify genes with a significant difference in gene expression in cell lines with more than 4 copies compared to those with less than 4 copies of the 17q21.3 amplicon. […] Cells were counterstained with Hoechst-33258 to allow identification of nuclei and the percentage of cells positive for nuclear pH3 immunofluorescence, also known as the Mitotic Index (30), was then quantitated for at least 1000 cells per well using Cellomics Target Activation software.
(§7) An RNA interference strategy was used to identify the gene responsible for mediating resistance to taxanes and auristatins in amplified cell lines. […] Phosphorylation at Ser10 of histone H3 is tightly correlated with chromosome condensation during M phase, and the percentage of cells that are positive for pH3 staining, or mitotic index, can be determined through an immunofluorescence assay. […]

The test system of another experiment is MDAMB468. As to the kind of experiment: Celltiter-Glo Luminescent Cell Viability Assay, MDAMB468. It counts as cell-based. As to conditions: Homo sapiens, MDA-MB-468; MDAMB468, 72 hours; read-out: classification in the bioinformatic analysis (IC50 cell viability), paclitaxel. Here is the method: as §4, §5
For a further experiment, the system named is AU565. As to the kind of experiment: Celltiter-Glo Luminescent Cell Viability Assay, AU565. Type of experiment: cell-based. Particulars: Homo sapiens; AU565, 72 hours; read-out: classification in the bioinformatic analysis (IC50 cell viability), paclitaxel. Here is the method: as §4, §5
For another experiment, the system named is EFM19. As to the kind of experiment: Celltiter-Glo Luminescent Cell Viability Assay, EFM19. Type of experiment: cell-based. As to conditions: Homo sapiens, EFM-19; EFM19, 72 hours; read-out: classification in the bioinformatic analysis (IC50 cell viability), paclitaxel. The protocol: as §4, §5
In another experiment the test system is HCC-1428. Put plainly: Mitotic index (phospho histone H3) after ABCC3 or control siRNA, HCC-1428. Type of experiment: cell-based, human. As to conditions: HCC-1428 (non-amplified), drug-treated cells. Here is the method: as §6, §7
Another experiment relates to MDA-MB-453. As to the kind of experiment: Mitotic index (phospho histone H3) after ABCC3 or control siRNA, MDA-MB-453. It counts as cell-based, human. Particulars: MDA-MB-453 (non-amplified), drug-treated cells. Here is the method: as §6, §7
Where [4] appears, read: read-out: classification in the bioinformatic analysis (IC50 cell viability), MMAE.

Like-named read-outs stand apart in the source and are kept apart here. Square brackets hold non-standard residues; d marks the D form. Peptide text beside a SMILES is read from it. * marks the point of attachment. Dolaproine = CO[C@@H]([C@@H]1CCCN1)[C@@H](C)C(=O)O; Dil = CC[C@H](C)[C@H](NC)[C@@H](CC(=O)O)OC; X1 = C[C@@H](N*)[C@@H](O)c1ccccc1; NMeV = CN[C@H](C(=O)O)C(C)C

By IC50 is commonly meant the midpoint of a concentration-inhibition curve.

For Trastuzumab-MCC-DM1 [T-DM1], the “patients who responded to treatment” value is reported as 40% in [1] (samples with amplification of ABCC3 (ABCC3/CEP17 ratio 1.8 and above), 2/5, IV infusion); 80% in [1] (samples with no amplification of ABCC3 (ABCC3/CEP17 below 1.8), 12/15, IV infusion). Also, the “sensitivity (mitotic response) of ABCC3 siRNA transfected cells vs control siRNA (NTC) transfected cells” value in the experiment on EFM-192A cells is “more sensitive”.
Turning to `CC[C@H](C)[C@@H]([C@@H](CC(=O)N1CCC[C@H]1[C@H](OC)[C@@H](C)C(=O)N[C@H](C)[C@@H](O)c1ccccc1)OC)N(C)C(=O)[C@@H](NC(=O)[C@@H](NC)C(C)C)C(C)C` [MMAE, monomethyl auristatin E] (H-[NMeV]V[Dil][Dolaproine]-X1), the EC50 in experiment [2] came to 0.05 nM; in experiment [3] (first ABCC3-expressing EVSA-T line) it was 1.5 nM; in [3] (second ABCC3-expressing EVSA-T line), 12 nM; in experiment [3] (third ABCC3-expressing EVSA-T line), 90 nM. The 50% inhibitory concentration (IC50) in the experiment with BT474 (setting [4]), in the experiment on NDAMB361 (setting [4]) and with EFM192A (setting [4]) was > 100 nM throughout. For the same compound, the “inhibition of cell growth compared to vector-alone control stable cell line” value in experiment [3] is given as “markedly less inhibition of cell growth”.
With `COc1cc2cc(c1Cl)N(C)C(=O)C[C@H](OC(=O)[C@H](C)N(C)C(=O)CCS)[C@]1(C)O[C@H]1[C@H](C)[C@@H]1C[C@@](O)(NC(=O)O1)[C@H](OC)/C=C/C=C(\C)C2` [DM1], the “sensitivity (mitotic response) of ABCC3 siRNA transfected cells vs control siRNA (NTC) transfected cells” value in the experiment on EFM-192A cells is recorded as “more sensitive”. In [3] (three ABCC3 overexpressing clones, standard cell viability assay (FIG. 7)), the “sensitivity to free DM1 vs control cell line” value is reported as “more resistant”.
In the case of `CC(=O)O[C@H]1C(=O)[C@@]2(C)[C@H]([C@H](OC(=O)c3ccccc3)[C@]3(O)C[C@H](OC(=O)[C@H](O)[C@@H](NC(=O)c4ccccc4)c4ccccc4)C(C)=C1C3(C)C)[C@]1(OC(C)=O)CO[C@@H]1C[C@@H]2O` [paclitaxel], the EC50 in experiment [2] (Homo sapiens, 72 h) turned out to be 0.2 nM; in [3] (Homo sapiens, EVSA-T, 72 h, first ABCC3-expressing EVSA-T line), 5 nM; in [3] (Homo sapiens, EVSA-T, 72 h, second ABCC3-expressing EVSA-T line), 10 nM; in experiment [3] (Homo sapiens, EVSA-T, 72 h, third ABCC3-expressing EVSA-T line), 80 nM. The “change in mitotic index, ABCC3 RNAi relative to non-targeting control siRNA” value in the experiment on ZR75-30 is recorded as “two to three fold increase”; with EFM-192A cells (EFM-192A (ABCC3 amplified), drug-treated cells), “two to three fold increase”; in the experiment on HCC-1428, “did not appreciably alter”; in the experiment with MDA-MB-453, “did not appreciably alter”. Moreover, the IC50 is < 10 nM in the experiment on MDAMB468; > 1000 nM in the experiment with BT474 (Homo sapiens, BT-474, read-out: classification in the bioinformatic analysis (IC50 cell viability), paclitaxel); < 10 nM with AU565; > 1000 nM with NDAMB361 (Homo sapiens, read-out: classification in the bioinformatic analysis (IC50 cell viability), paclitaxel); < 10 nM in the experiment with EFM19; > 1000 nM in the experiment on EFM192A (Homo sapiens, EFM-192A, read-out: classification in the bioinformatic analysis (IC50 cell viability), paclitaxel). For the same compound, in experiment [3], the “inhibition of cell growth compared to vector-alone control stable cell line” value is “markedly less inhibition of cell growth”.
